Reference: US8901118B2, “Compounds and methods for kinase modulation, and indications therefor” (Plexxikon Inc., priority 2010, dated 2014)

Experiments:
SKNSH cells = assay: SKNSH (human neuroblastoma) cell proliferation assay (ATPlite); type: cell-based; details: SK-N-SH, read-out: Inhibition of Cell Proliferation IC50, SKNSH
Procedure, shortened: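 SK-N-SH human neuroblastoma cells grown in RPMI with 10% FBS were pelleted, resuspended at 2×10^4 cells/mL, and plated at 3,000 cells per well (150 μL) in 96-well plates, then kept overnight at 37° C. in 5% CO2. Compounds in an 8-point 1:3 DMSO series were added as 0.75 μL aliquots.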

BCR-NTRK1 BaF3 cells = molecular target: T1, BCR-NTRK1 BaF3 cells (Homo sapiens, UniProt P04629); assay: BaF3 BCR-NTRK1 cell proliferation assay (ATPlite); type: cell-based; details: read-out: Inhibition of Cell Proliferation IC50, BCR/BaF3 TrkA
T1 construct: fused on or other part: P11274 (Breakpoint cluster region protein)
T1 sequence (P04629 510-781): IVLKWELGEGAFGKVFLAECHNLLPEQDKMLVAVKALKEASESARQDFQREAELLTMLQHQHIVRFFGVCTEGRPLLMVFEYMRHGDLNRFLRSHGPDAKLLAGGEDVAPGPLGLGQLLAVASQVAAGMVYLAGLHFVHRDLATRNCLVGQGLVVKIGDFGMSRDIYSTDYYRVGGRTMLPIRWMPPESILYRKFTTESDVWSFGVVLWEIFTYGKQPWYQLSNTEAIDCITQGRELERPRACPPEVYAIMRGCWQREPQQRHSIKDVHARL
Procedure, shortened: (§1)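 ATP-based luminescence (ATPlite), read after 10 min at room temperature, served as a proxy for cell number, and IC50 was fitted against compound concentration. Before that, cells were treated for 3 days with an 8-point 1:3 dilution series starting at 10 μM. BaF3 cells were plated at 10,000/well without IL-3, and MV-4-11 cells at 25,000/well.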

BCR-KIT BaF3 cells = molecular target: T2, BCR-KIT BaF3 cells (Homo sapiens, UniProt P10721); assay: BaF3 BCR-KIT cell proliferation assay (ATPlite); type: cell-based; details: read-out: Inhibition of Cell Proliferation IC50, BCR/BaF3 Kit
T2 construct: fused on or other part: P11274 (Breakpoint cluster region protein)
T2 sequence (P10721 589-937): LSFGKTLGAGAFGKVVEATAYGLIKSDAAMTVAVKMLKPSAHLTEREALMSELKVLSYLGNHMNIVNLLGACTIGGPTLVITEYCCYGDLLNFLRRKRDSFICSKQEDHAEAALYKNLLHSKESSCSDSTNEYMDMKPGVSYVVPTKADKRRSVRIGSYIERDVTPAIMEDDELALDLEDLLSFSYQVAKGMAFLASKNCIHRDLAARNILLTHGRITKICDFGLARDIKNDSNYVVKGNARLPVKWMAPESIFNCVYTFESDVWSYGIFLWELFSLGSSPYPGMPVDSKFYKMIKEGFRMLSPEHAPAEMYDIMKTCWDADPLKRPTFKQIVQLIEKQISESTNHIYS
Procedure, shortened: as §1

BCR-NTRK3 BaF3 cells = molecular target: T3, BCR-NTRK3 BaF3 cells (Homo sapiens, UniProt Q16288); assay: BaF3 BCR-NTRK3 cell proliferation assay (ATPlite); type: cell-based; details: read-out: Inhibition of Cell Proliferation IC50, BCR/BaF3 TrkC
T3 construct: fused on or other part: P11274 (Breakpoint cluster region protein)
T3 sequence (Q16288 whole entry, the tested form may be a part): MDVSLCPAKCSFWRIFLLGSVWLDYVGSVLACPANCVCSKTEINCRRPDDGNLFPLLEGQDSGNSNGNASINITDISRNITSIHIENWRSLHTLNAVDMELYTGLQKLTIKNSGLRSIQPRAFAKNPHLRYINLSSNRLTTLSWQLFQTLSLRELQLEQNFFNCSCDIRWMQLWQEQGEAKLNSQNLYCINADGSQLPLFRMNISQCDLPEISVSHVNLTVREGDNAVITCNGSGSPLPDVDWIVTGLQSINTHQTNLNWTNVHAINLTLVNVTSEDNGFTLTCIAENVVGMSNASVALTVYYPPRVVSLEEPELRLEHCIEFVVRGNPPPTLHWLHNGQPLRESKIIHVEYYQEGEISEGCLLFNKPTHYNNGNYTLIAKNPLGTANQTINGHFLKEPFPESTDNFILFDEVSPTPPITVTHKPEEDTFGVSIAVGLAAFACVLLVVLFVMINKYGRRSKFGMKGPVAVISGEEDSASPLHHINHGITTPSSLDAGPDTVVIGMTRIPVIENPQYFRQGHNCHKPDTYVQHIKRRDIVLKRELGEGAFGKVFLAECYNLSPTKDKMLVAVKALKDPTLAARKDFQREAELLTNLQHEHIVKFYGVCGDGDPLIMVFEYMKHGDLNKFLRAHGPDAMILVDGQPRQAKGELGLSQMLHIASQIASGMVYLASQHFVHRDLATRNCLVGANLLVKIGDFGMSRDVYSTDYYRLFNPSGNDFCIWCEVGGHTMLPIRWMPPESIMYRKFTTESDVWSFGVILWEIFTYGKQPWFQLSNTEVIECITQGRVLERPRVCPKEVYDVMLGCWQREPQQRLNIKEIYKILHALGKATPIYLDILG
Procedure, shortened: as §1

CYP2D6 = CYP2D6 (Homo sapiens, UniProt P10635); assay: CYP2D6 inhibition (fluorescent substrate AMMC); type: in vitro ADME; details: read-out: Cyp IC50 2D6
CYP2D6, sequence (P10635 whole entry): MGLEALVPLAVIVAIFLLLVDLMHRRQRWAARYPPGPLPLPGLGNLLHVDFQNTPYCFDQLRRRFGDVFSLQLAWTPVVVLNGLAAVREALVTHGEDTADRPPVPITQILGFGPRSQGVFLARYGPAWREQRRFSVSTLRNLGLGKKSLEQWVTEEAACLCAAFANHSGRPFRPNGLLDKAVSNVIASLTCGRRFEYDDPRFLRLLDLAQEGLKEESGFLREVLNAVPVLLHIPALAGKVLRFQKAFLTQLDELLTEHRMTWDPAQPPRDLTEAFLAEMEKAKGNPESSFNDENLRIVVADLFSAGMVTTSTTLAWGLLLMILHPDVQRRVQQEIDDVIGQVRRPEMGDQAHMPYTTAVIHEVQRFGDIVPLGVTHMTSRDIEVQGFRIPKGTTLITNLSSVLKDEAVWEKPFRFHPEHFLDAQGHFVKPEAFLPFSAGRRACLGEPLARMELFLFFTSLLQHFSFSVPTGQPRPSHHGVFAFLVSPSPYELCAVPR
Procedure, shortened: (§2)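 Test compounds, 10-point 1:1 serial dilutions in NADPH-regenerating cofactor mix, were preincubated 10 min at 37° C before recombinant enzyme and fluorogenic substrate reactions at 37° C (CYP1A2 15 min; CYP2C9 45 min; CYP2C19, 2D6 30 min). Product fluorescence was read at 409 ex with 460 em (1A2, 2C19) or 530 em (2C9, 2D6), and IC50 fitted from signal versus concentration.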

CYP3A4(BFC) = CYP3A4(BFC) (Homo sapiens, UniProt P08684); assay: CYP3A4(BFC) inhibition; type: in vitro ADME; details: CYP3A4, substrate BFC; read-out: Cyp IC50 3A4(BFC)
CYP3A4(BFC), sequence (P08684 whole entry): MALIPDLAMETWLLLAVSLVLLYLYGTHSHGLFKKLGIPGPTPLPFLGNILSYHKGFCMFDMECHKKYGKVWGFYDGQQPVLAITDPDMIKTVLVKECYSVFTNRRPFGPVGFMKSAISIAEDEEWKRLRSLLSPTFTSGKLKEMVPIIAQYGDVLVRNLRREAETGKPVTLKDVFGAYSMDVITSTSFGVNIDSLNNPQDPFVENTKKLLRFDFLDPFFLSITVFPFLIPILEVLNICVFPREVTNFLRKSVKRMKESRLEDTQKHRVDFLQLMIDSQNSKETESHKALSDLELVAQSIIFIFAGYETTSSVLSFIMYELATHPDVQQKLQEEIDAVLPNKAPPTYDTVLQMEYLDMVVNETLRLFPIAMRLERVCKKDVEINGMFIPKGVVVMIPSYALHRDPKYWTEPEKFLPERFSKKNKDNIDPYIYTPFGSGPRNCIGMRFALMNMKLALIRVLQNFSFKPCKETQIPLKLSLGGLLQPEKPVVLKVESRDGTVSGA
Procedure, shortened: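 Inhibition of human CYP3A4 with the BFC substrate was measured by fluorescence loss of the metabolized product. Compounds at 100 mM in DMSO were diluted 1 μL into 82 μL acetonitrile, then 11 μL into 204 μL cofactor mix with NADPH regeneration solutions, and serially diluted 1:1 to 10 points. Plates were incubated 30 min at 37° C and read at 409 ex/460 em to obtain IC50.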

CYP2C9 = CYP2C9 (Homo sapiens, UniProt P11712); assay: CYP2C9 inhibition (fluorescent substrate MFC); type: in vitro ADME; details: read-out: Cyp IC50 2C9
CYP2C9, sequence (P11712 whole entry): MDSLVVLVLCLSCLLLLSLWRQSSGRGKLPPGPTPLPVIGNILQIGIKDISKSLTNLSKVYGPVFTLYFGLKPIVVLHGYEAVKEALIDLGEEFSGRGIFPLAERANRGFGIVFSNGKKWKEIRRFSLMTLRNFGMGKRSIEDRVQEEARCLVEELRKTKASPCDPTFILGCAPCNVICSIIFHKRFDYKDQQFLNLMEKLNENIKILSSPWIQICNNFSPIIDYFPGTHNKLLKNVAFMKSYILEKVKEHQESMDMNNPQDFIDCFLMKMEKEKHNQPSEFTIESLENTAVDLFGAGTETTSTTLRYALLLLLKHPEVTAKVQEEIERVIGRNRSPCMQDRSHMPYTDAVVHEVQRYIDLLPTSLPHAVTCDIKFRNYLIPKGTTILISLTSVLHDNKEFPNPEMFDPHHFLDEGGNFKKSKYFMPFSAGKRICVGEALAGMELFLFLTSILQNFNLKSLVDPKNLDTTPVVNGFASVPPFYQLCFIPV
Procedure, shortened: as §2

CCc1ccc(Nc2ncc(Cc3c[nH]c4ncc(C)cc34)cn2)cc1 [Compound P-3025, (4-Ethyl-phenyl)-[5-(5-methyl-1H-pyrrolo[2,3-b]pyridin-3-ylmethyl)-pyrimidin-2-yl]-amine]
IC50 (SKNSH cells): < 1 µM | IC50 (BCR-NTRK1 BaF3 cells): < 0.01 µM | IC50 (BCR-KIT BaF3 cells): < 0.01 µM | IC50 (BCR-NTRK3 BaF3 cells): < 0.01 µM

CCn1ccc(Nc2ncc(Cc3c[nH]c4ncc(C)cc34)cn2)n1 [Compound P-3035, (1-Ethyl-1H-pyrazol-3-yl)-[5-(5-methyl-1H-pyrrolo[2,3-b]pyridin-3-ylmethyl)-pyrimidin-2-yl]-amine]
IC50 (SKNSH cells): < 1 µM | IC50 (BCR-NTRK1 BaF3 cells): < 1 µM | IC50 (BCR-KIT BaF3 cells): < 1 µM | IC50 (BCR-NTRK3 BaF3 cells): < 0.1 µM

Cc1cnc2[nH]cc(Cc3cnc(Nc4cc(-c5ccc(F)cc5)n[nH]4)nc3)c2c1 [Compound P-3028, [5-(4-Fluoro-phenyl)-2H-pyrazol-3-yl]-[5-(5-methyl-1H-pyrrolo[2,3-b]pyridin-3-ylmethyl)-pyrimidin-2-yl]-amine]
IC50 (SKNSH cells): < 20 µM | IC50 (BCR-NTRK1 BaF3 cells): < 0.1 µM | IC50 (BCR-KIT BaF3 cells): < 0.1 µM | IC50 (BCR-NTRK3 BaF3 cells): < 0.1 µM

CCOc1ncnc2[nH]cc(Cc3ccc(Nc4cccnc4)nc3F)c12 [Compound P-4021, [5-(4-Ethoxy-7H-pyrrolo[2,3-d]pyrimidin-5-ylmethyl)-6-fluoro-pyridin-2-yl]-pyridin-3-yl-amine]
IC50 (SKNSH cells): < 1 µM | IC50 (BCR-NTRK1 BaF3 cells): > 1 µM | IC50 (BCR-KIT BaF3 cells): > 1 µM | IC50 (BCR-NTRK3 BaF3 cells): < 1 µM

Cc1cnc2[nH]cc(Cc3cnc(Nc4cc(C(C)(C)C)n[nH]4)nc3)c2c1 [Compound P-3029, (5-tert-Butyl-2H-pyrazol-3-yl)-[5-(5-methyl-1H-pyrrolo[2,3-b]pyridin-3-ylmethyl)-pyrimidin-2-yl]-amine]
IC50 (SKNSH cells): > 25 µM | IC50 (BCR-NTRK1 BaF3 cells): > 1 µM | IC50 (BCR-KIT BaF3 cells): < 1 µM | IC50 (BCR-NTRK3 BaF3 cells): < 1 µM

Cc1cnc2[nH]cc(Cc3cnc(Nc4ccc(S(C)(=O)=O)cc4)nc3)c2c1 [Compound P-3034, (4-Methanesulfonyl-phenyl)-[5-(5-methyl-1H-pyrrolo[2,3-b]pyridin-3-ylmethyl)-pyrimidin-2-yl]-amine]
IC50 (SKNSH cells): < 1 µM | IC50 (BCR-NTRK1 BaF3 cells): < 0.1 µM | IC50 (BCR-KIT BaF3 cells): < 0.1 µM | IC50 (BCR-NTRK3 BaF3 cells): < 0.1 µM

Cc1ccc(Nc2ccc(Cc3c[nH]c4ncc(Cl)cc34)c(F)n2)cn1 [Compound P-3042, [5-(5-Chloro-1H-pyrrolo[2,3-b]pyridin-3-ylmethyl)-6-fluoro-pyridin-2-yl]-(6-methyl-pyridin-3-yl)-amine]
IC50 (SKNSH cells): > 1 µM | IC50 (BCR-NTRK1 BaF3 cells): < 1 µM | IC50 (BCR-KIT BaF3 cells): < 1 µM | IC50 (BCR-NTRK3 BaF3 cells): < 0.1 µM

COc1ccc(Nc2ncc(Cc3c[nH]c4ncc(C)cc34)cn2)cc1 [Compound P-3021, (4-Methoxy-phenyl)-[5-(5-methyl-1H-pyrrolo[2,3-b]pyridin-3-ylmethyl)-pyrimidin-2-yl]-amine]
IC50 (SKNSH cells): < 1 µM | IC50 (BCR-NTRK1 BaF3 cells): < 1 µM | IC50 (BCR-KIT BaF3 cells): < 0.1 µM | IC50 (BCR-NTRK3 BaF3 cells): < 0.1 µM

CCOc1ccc(Nc2ncc(Cc3c[nH]c4ncc(C)cc34)cn2)cn1 [Compound P-3027, (6-Ethoxy-pyridin-3-yl)-[5-(5-methyl-1H-pyrrolo[2,3-b]pyridin-3-ylmethyl)-pyrimidin-2-yl]-amine]
IC50 (SKNSH cells): > 25 µM | IC50 (BCR-NTRK1 BaF3 cells): < 0.1 µM | IC50 (BCR-KIT BaF3 cells): < 0.1 µM | IC50 (BCR-NTRK3 BaF3 cells): < 0.1 µM

CSc1ccc(Nc2ncc(Cc3c[nH]c4ncc(C)cc34)cn2)cc1 [Compound P-3033, [5-(5-Methyl-1H-pyrrolo[2,3-b]pyridin-3-ylmethyl)-pyrimidin-2-yl]-(4-methylsulfanyl-phenyl)-amine]
IC50 (SKNSH cells): < 1 µM | IC50 (BCR-NTRK1 BaF3 cells): < 0.1 µM | IC50 (BCR-KIT BaF3 cells): < 0.01 µM | IC50 (BCR-NTRK3 BaF3 cells): < 0.1 µM

CCCOc1ccc(Nc2ncc(Cc3c[nH]c4ncc(C)cc34)cn2)cc1 [Compound P-3024, [5-(5-Methyl-1H-pyrrolo[2,3-b]pyridin-3-ylmethyl)-pyrimidin-2-yl]-(4-propoxy-phenyl)-amine]
IC50 (SKNSH cells): < 1 µM | IC50 (BCR-NTRK1 BaF3 cells): < 1 µM | IC50 (BCR-KIT BaF3 cells): < 0.1 µM | IC50 (BCR-NTRK3 BaF3 cells): < 0.1 µM

Cc1cnc2[nH]cc(Cc3cnc(Nc4cc(C5CC5)n[nH]4)nc3)c2c1 [Compound P-3032, (5-Cyclopropyl-2H-pyrazol-3-yl)-[5-(5-methyl-1H-pyrrolo[2,3-b]pyridin-3-ylmethyl)-pyrimidin-2-yl]-amine]
IC50 (SKNSH cells): < 1 µM | IC50 (BCR-NTRK1 BaF3 cells): < 1 µM | IC50 (BCR-KIT BaF3 cells): < 1 µM | IC50 (BCR-NTRK3 BaF3 cells): < 1 µM

CCOc1ncnc2[nH]cc(Cc3ccc(Nc4ccc(Br)nc4)nc3F)c12 [Compound P-4020, (6-Bromo-pyridin-3-yl)-[5-(4-ethoxy-7H-pyrrolo[2,3-d]pyrimidin-5-ylmethyl)-6-fluoro-pyridin-2-yl]-amine]
IC50 (SKNSH cells): < 1 µM | IC50 (BCR-NTRK1 BaF3 cells): < 1 µM | IC50 (BCR-KIT BaF3 cells): < 1 µM | IC50 (BCR-NTRK3 BaF3 cells): < 0.1 µM

CCOc1ccc(Nc2ccc(C(=O)c3c[nH]c4ncc(C)cc34)c(F)n2)cn1 [Compound P-3045, [6-(6-ethoxy-pyridin-3-ylamino)-2-fluoro-pyridin-3-yl]-(5-methyl-1H-pyrrolo[2,3-b]pyridin-3-yl)-methanone]
IC50 (SKNSH cells): > 25 µM | IC50 (BCR-NTRK1 BaF3 cells): < 0.1 µM | IC50 (BCR-KIT BaF3 cells): < 1 µM | IC50 (BCR-NTRK3 BaF3 cells): < 0.1 µM

Cc1cnc2[nH]cc(Cc3cnc(Nc4ccc(C(C)(C)C)cc4)nc3)c2c1 [Compound P-3030, (4-tert-Butyl-phenyl)-[5-(5-methyl-1H-pyrrolo[2,3-b]pyridin-3-ylmethyl)-pyrimidin-2-yl]-amine amine]
IC50 (SKNSH cells): < 0.1 µM | IC50 (BCR-NTRK1 BaF3 cells): < 0.01 µM | IC50 (BCR-KIT BaF3 cells): < 0.01 µM | IC50 (BCR-NTRK3 BaF3 cells): < 0.01 µM

Cc1cnc2[nH]cc(Cc3cnc(Nc4ccc(C(O)(C(F)(F)F)C(F)(F)F)cc4)nc3)c2c1 [Compound P-3031, 1,1,1,3,3,3-Hexafluoro-2-{4-[5-(5-methyl-1H-pyrrolo[2,3-b]pyridin-3-ylmethyl)-pyrimidin-2-ylamino]-phenyl}-propan-2-ol]
IC50 (SKNSH cells): < 0.1 µM | IC50 (BCR-NTRK1 BaF3 cells): < 0.01 µM | IC50 (BCR-KIT BaF3 cells): < 0.01 µM | IC50 (BCR-NTRK3 BaF3 cells): < 0.01 µM

CCOc1ccc(Nc2ncc(Cc3c[nH]c4ncc(C)cc34)cn2)cc1 [Compound P-3026, (4-Ethoxy-phenyl)-[5-(5-methyl-1H-pyrrolo[2,3-b]pyridin-3-ylmethyl)-pyrimidin-2-yl]-amine]
IC50 (SKNSH cells): > 25 µM | IC50 (BCR-NTRK1 BaF3 cells): < 0.1 µM | IC50 (BCR-KIT BaF3 cells): < 0.1 µM | IC50 (BCR-NTRK3 BaF3 cells): < 0.1 µM

COc1ccc(Nc2ncc(Cc3c[nH]c4ncc(C)cc34)cn2)cn1 [Compound P-3020, (6-Methoxy-pyridin-3-yl)-[5-(5-methyl-1H-pyrrolo[2,3-b]pyridin-3-ylmethyl)-pyrimidin-2-yl]-amine]
IC50 (SKNSH cells): < 1 µM | IC50 (BCR-NTRK1 BaF3 cells): < 0.1 µM | IC50 (BCR-KIT BaF3 cells): < 0.1 µM | IC50 (BCR-NTRK3 BaF3 cells): < 0.1 µM

Cc1cnc2[nH]cc(Cc3cnc(Nc4cc(C(F)(F)F)n[nH]4)nc3)c2c1 [Compound P-3037, [5-(5-Methyl-1H-pyrrolo[2,3-b]pyridin-3-ylmethyl)-pyrimidin-2-yl]-(5-trifluoromethyl-2H-pyrazol-3-yl)-amine]
IC50 (SKNSH cells): > 25 µM | IC50 (BCR-NTRK1 BaF3 cells): > 1 µM | IC50 (BCR-KIT BaF3 cells): > 1 µM | IC50 (BCR-NTRK3 BaF3 cells): > 1 µM

FC1(F)CCC(Nc2ncc(Cc3c[nH]c4ncc(Cl)cc34)cn2)CC1 [Compound P-3004]
IC50 (BCR-NTRK1 BaF3 cells): < 10 µM | IC50 (CYP2D6): > 10 µM | IC50 (CYP3A4(BFC)): > 10 µM | IC50 (CYP2C9): > 10 µM | IC50 (BCR-KIT BaF3 cells): > 1 µM | IC50 (BCR-NTRK3 BaF3 cells): < 10 µM

CCn1cc(Nc2ncc(Cc3c[nH]c4ncc(C)cc34)cn2)cn1 [Compound P-3036, (1-Ethyl-1H-pyrazol-4-yl)-[5-(5-methyl-1H-pyrrolo[2,3-b]pyridin-3-ylmethyl)-pyrimidin-2-yl]-amine]
IC50 (SKNSH cells): < 20 µM | IC50 (BCR-NTRK1 BaF3 cells): < 1 µM | IC50 (BCR-KIT BaF3 cells): < 0.1 µM | IC50 (BCR-NTRK3 BaF3 cells): < 1 µM

CCc1ccc(Nc2ccc(Cc3c[nH]c4ncnc(C5CC5)c34)c(F)n2)cn1 [Compound P-4028, [5-(4-Cyclopropyl-7H-pyrrolo[2,3-d]pyrimidin-5-ylmethyl)-6-fluoro-pyridin-2-yl]-(6-ethyl-pyridin-3-yl)-amine]
IC50 (BCR-NTRK1 BaF3 cells): < 0.01 µM | IC50 (CYP2D6): > 10 µM | IC50 (CYP3A4(BFC)): > 10 µM | IC50 (CYP2C9): 5 to 10 µM | IC50 (BCR-KIT BaF3 cells): < 1 µM | IC50 (BCR-NTRK3 BaF3 cells): < 0.01 µM

CCc1ccc(Nc2ccc(C(=O)c3c[nH]c4ncnc(C5CC5)c34)c(F)n2)cn1 [Compound P-4029, (4-Cyclopropyl-7H-pyrrolo[2,3-d]pyrimidin-5-yl)-[6-(6-ethyl-pyridin-3-ylamino)-2-fluoro-pyridin-3-yl]-methanone]
IC50 (BCR-NTRK1 BaF3 cells): < 0.01 µM | IC50 (CYP2D6): > 10 µM | IC50 (CYP3A4(BFC)): > 10 µM | IC50 (CYP2C9): > 10 µM | IC50 (BCR-KIT BaF3 cells): < 0.1 µM | IC50 (BCR-NTRK3 BaF3 cells): < 0.01 µM
